# According to patent publication US20240392302A1, “METHOD FOR DETECTING AND QUANTIFYING RNA” (FLUORESCENCE DIAGNOSIS (SHANGHAI) BIOTECH COMPANY LTD., priority 2021, published 2024):
# Tested on: F30-N16-1 RNA aptamer molecules
# Experiment: Binding of F30-N16-1 RNA aptamer molecules with different fluorescent molecules (fluorescence spectrum, activation multiple)
# Assay type: biochemical
# Settings: for Maximum emission peak (nm) / Maximum excitation peak (nm): complex with F30-N16-1; for Activation Multiple: fluorophore with F30-N16-1
# Procedure: Nucleic acid aptamer molecules of N16 or N16 mutants were prepared by using the commonly-used experimental method (I), 2.5 μM of nucleic acid aptamer molecules and 0.5 μM of fluorophore molecules were incubated in a detection buffer (40 mM of HEPES, pH 7.4, 125 mM of KCl, 5 mM of MgCl2, 5% DMSO), and the maximum excitation peak and the maximum emission peak of the fluorescence of the nucleic acid aptamer-fluorophore molecular complex were detected with Synergy Neo2 multifunctional enzyme-labeler. Synergy Neo2 multifunctional enzyme-labeler was used again to detect fluorescence intensity of the nucleic acid aptamer-fluorophore molecular complex under its maximum excitation and emission conditions, the control sample ([…] of fluorophore molecules without nucleic acid aptamer) was also measured under the same conditions, and the ratio of fluorescence intensity was calculated. For example, as for fluorescence of the complex formed by 2.5 μM of N16-1 nucleic acid aptamer and 0.5 μM of I-5-14 fluorophore molecules, the maximum excitation peak is 512 nm and the maximum emission peak is 574 nm. It was detected by the Synergy Neo2 multifunctional enzyme-labeler that the fluorescence intensity of the complex at an excitation condition of 512±10 nm and an emission condition of 574 nm±10 nm was 49,088, while the fluorescence intensity of the control (0.5 μM of I-5-14 fluorophore molecules) under the same detection conditions was 399, so the activation multiple of N16-1 nucleic acid aptamer to I-5-14 fluorophore molecules was 123.
# F30-N16-1 RNA aptamer molecules were prepared by using the commonly-used experimental method (I), and were used for detecting basic properties, including fluorescence spectrum and fluorescence activation multiple, of the binding of I-5-14 analogues with N16.
SMILES,Maximum emission peak (nm),Maximum excitation peak (nm),Activation Multiple
CN(CCO)c1ccc2nc(/C=C3\SC(=S)N(CCC(=O)O)C3=O)sc2c1 [I-5-70],686 nm,556 nm,12
CN1C(=O)S/C(=C\c2cc3c4c(c2)CCCN4CCC3)C1=S [I-5-46],633 nm,542 nm,7
CC1=CC(C)(C)N(C)c2ccc(/C=C3\SC(=S)NC3=S)cc21 [I-5-43],665 nm,572 nm,17
CN1C(=O)/C(=C/c2ccc(-c3ccc(N(C)CCO)s3)cc2)NC1=S [I-5-63],673 nm,521 nm,6
CN(CCO)c1ccc2c(c1)C(C)(C)c1cc(/C=C3\SC(=S)NC3=O)sc1-2 [I-5-79],733 nm,682 nm,11
CN1C(=O)/C(=C/c2ccc3c(c2)CCCN3C)NC1=S [I-5-40],548 nm,473 nm,8
CN(C)c1ccc(/C=C2\NC(=S)NC2=O)s1 [I-5-12],555 nm,535 nm,11
CN1CCOc2cc(/C=C3\SC(=S)NC3=O)ccc21 [I-5-37],603 nm,497 nm,256
CN(C)c1cc2sc(/C=C3\SC(=S)NC3=O)cc2s1 [I-5-51],654 nm,582 nm,1125
CN(CCO)c1ccc2c(c1)C(C)(C)c1cc(/C=C3\SC(=S)NC3=S)sc1-2 [I-5-78],681 nm,582 nm,8
O=C1NC(=S)N/C1=C\c1cc2c3c(c1)CCCN3CCC2 [I-5-50],597 nm,512 nm,7
O=C1NC(=S)N/C1=C\c1ccc(N(CCO)CCO)s1 [I-5-6],550 nm,536 nm,23
CCN1C(=O)/C(=C/c2ccc3c(c2)SCCN3C)NC1=S [I-5-35],585 nm,487 nm,10
CN(CCO)c1ccc(/C=C2\OC(=O)N(CCC(=O)O)C2=O)c(F)c1 [I-5-25],502 nm,403 nm,6
CN(CCO)c1ccc(/C=C2\SC(=O)NC2=S)cc1 [I-5-15],598 nm,567 nm,31
CN(CCO)c1ccc2nc(/C=C3\NC(=S)NC3=O)sc2c1 [I-5-69],661 nm,531 nm,11
CN(C)c1ccc2cc(/C=C3\NC(=S)NC3=O)sc2c1 [I-5-67],652 nm,516 nm,7
CN(CCNS(C)(=O)=O)c1ccc(/C=C2\SC(=O)NC2=S)s1 [I-5-3],580 nm,550 nm,14
CN(CCO)c1ccc2c(c1)C(C)(C)c1cc(/C=C3\SC(=S)NC3=S)ccc1-2 [I-5-75],791 nm,741 nm,7
CN(CCO)c1cc2sc(/C=C3\SC(=O)NC3=S)cc2s1 [I-5-56],627 nm,568 nm,12
CN1CCOc2cc(/C=C3\SC(=O)NC3=S)ccc21 [I-5-36],625 nm,517 nm,9
CN1CCCc2cc(/C=C3\SC(=O)NC3=O)ccc21 [I-5-39],509 nm,429 nm,14
CN(C)c1ccc(/C=C2\SC(=S)N(CCC(=O)O)C2=O)cc1 [I-5-20],565 nm,493 nm,22
CN(CCO)c1cc2c(s1)-c1sc(/C=C3\SC(=S)NC3=O)cc1C2(C)C [I-5-83],733 nm,685 nm,4
CN1CCSc2cc(/C=C3\SC(=O)NC3=O)ccc21 [I-5-33],553 nm,442 nm,154

SMILES,Maximum emission peak (nm),Maximum excitation peak (nm),Activation Multiple
CN(CCO)c1ccc2cc(/C=C3\SC(=S)NC3=S)sc2c1 [I-5-66],748 nm,666 nm,81
CN1CCSc2cc(/C=C3\SC(=S)NC3=S)ccc21 [I-5-34],659 nm,547 nm,11
CN(CCO)c1cc2c(s1)-c1sc(/C=C3\SC(=S)NC3=S)cc1C2(C)C [I-5-82],801 nm,748 nm,3
CN1C(=O)/C(=C/c2cc3sc(N(CCO)CCO)cc3s2)SC1=S [I-5-59],655 nm,581 nm,12
CN(C)c1cc2sc(/C=C3\SC(=O)NC3=O)cc2s1 [I-5-53],593 nm,518 nm,1281
CN(C)c1ccc(/C=C2\OC(=O)N(N)C2=O)cc1 [I-5-19],499 nm,397 nm,18
CN1C(=O)S/C(=C\c2ccc3c(c2)SCCN3C)C1=S [I-5-32],625 nm,519 nm,15
CCN1C(=O)S/C(=C\c2ccc(N(C)CCO)s2)C1=O [I-5-5],518 nm,487 nm,11
CCN1C(=O)O/C(=C\c2ccc(N(C)CCO)cc2)C1=O [I-5-13],492 nm,393 nm,8
CN(C)c1ccc(/C=C2\SC(=O)NC2=S)s1 [I-5-8],582 nm,554 nm,15
CN(CCO)c1ccc2c(c1)C(C)(C)c1cc(/C=C3\NC(=S)NC3=O)sc1-2 [I-5-77],783 nm,736 nm,5
CC1=CC(C)(C)N(C)c2ccc(/C=C3\SC(=O)NC3=S)cc21 [I-5-42],627 nm,527 nm,11
CN1CCc2cc(/C=C3\NC(=S)NC3=O)c(Cl)cc21 [I-5-30],562 nm,497 nm,11
CN(CCO)c1ccc(/C=C2\OC(=O)NC2=O)s1 [I-5-1],500 nm,460 nm,14
CN(C)c1ccc(/C=C2\SC(=S)NC2=S)s1 [I-5-10],642 nm,626 nm,11
CN1C(=O)/C(=C/c2cc3ccc(N(CCO)CCO)cc3s2)SC1=S [I-5-68],663 nm,536 nm,9
CN(C)c1ccc(/C=C2\SC(=O)NC2=O)cc1 [I-5-23],515 nm,433 nm,156
CN(CCO)c1ccc2c(c1)C(C)(C)c1cc(/C=C3\NC(=S)NC3=O)ccc1-2 [I-5-76],774 nm,724 nm,9
CN(CCOC(=O)CCOCCO)c1ccc(/C=C2\SC(=S)NC2=O)c(Br)c1 [I-5-26],567 nm,497 nm,21
CN(CCO)c1ccc(/C=C2\SC(=S)NC2=S)s1 [I-5-4],638 nm,625 nm,47
CC1=CC(C)(C)N(C)c2ccc(/C=C3\NC(=S)NC3=O)cc21 [I-5-45],595 nm,497 nm,11
CN(CCO)c1ccc(/C=C2\SC(=O)NC2=O)cc1 [I-5-17],506 nm,445 nm,105
CN(CCO)c1cc2sc(/C=C3\SC(=S)NC3=O)cc2s1 [I-5-57],647 nm,579 nm,1279
CN(CCO)c1cc2c(s1)-c1sc(/C=C3\NC(=S)N(N)C3=O)cc1C2(C)C [I-5-81],713 nm,635 nm,7
